The values below come from US5770599A, “Quinazoline derivatives” (Zeneca Limited, priority 1995, dated 1998).

In assay [1] the test system is EGF receptor tyrosine kinase. To be noted: Fry et al., Science, 1994, 265, 1093; cited from earlier work.
The test system of assay [2] is human vulval epidermoid carcinoma cell line A-431. In words: Test (c): in vivo inhibition of growth of A-431 xenografts in athymic nude mice. Also on record: species or system human (xenograft in athymic nude mice). Conditions: Mus musculus, A-431, 312 h; usually oral, once daily, 13 days; approximately. How it is done:
(c) An in-vivo assay in a group of athymic nude mice (strain ONU:Alpk) which determines the ability of a test compound (usually administered orally as a ball-milled suspension in 0.5% polysorbate) to inhibit the growth of xenografts of the human vulval epidermoid carcinoma cell line A-431.
A-431 cells were maintained in culture in DMEM supplemented with 5% FCS and 2 mM glutamine. Freshly cultured cells were harvested by trypsinization and injected subcutaneously (10 million cells/0.1 ml/mouse) into both flanks of a number of donor nude mice. When sufficient tumour material was available (after approximately 9 to 14 days), fragments of tumour tissue were transplanted in the flanks of recipient nude mice (test day 0). Generally, on the seventh day after transplantation (test day 7) groups of 7 to 10 mice with similar-sized tumours were selected and dosing of the test compound was commenced. Once daily dosing of test compound was continued for a total of 13 days (test days 7 to 19 inclusive). In some studies the dosing of the test compound was continued beyond test day 19, for example to test day 26. In each case, on the following test day the animals were killed and the final tumour volume was calculated from measurements of the length and width of the tumours. Results were calculated as a percentage inhibition of tumour volume relative to untreated controls.

Assay [3] addresses T1, EGF receptor tyrosine kinase (Homo sapiens, UniProt P00533).
T1 construct: Receptor tyrosine kinase was obtained in partially purified form from A-431 cells; endogenous in cells; host or cells: A-431 cells (human vulval carcinoma); solubilised membrane fraction
In words: Test (a): in vitro assay of inhibition of the enzyme EGF receptor tyrosine kinase (32P peptide phosphorylation). The assay is classed as biochemical. Here is the method: (a) An in vitro assay which-determines the ability of a test compound to inhibit the enzyme EGF receptor tyrosine kinase.
A-431 cells were grown to confluence using Dulbecco's modified Eagle's medium (DMEM) containing 5% fetal calf serum (FCS). […] The homogenate was centrifuged at 400 g for 10 minutes at 0°-4° C. The supernatant was centrifuged at 25,000 g for 30 minutes at 0°-4° C. The pelleted material was suspended in 30 mM Hepes buffer at pH 7.4 containing 5% glycerol, 4 mM benzamidine and 1% Triton X-100, stirred for 1 hour at 0°-4° C., and recentrifuged at 100,000 g for 1 hour at 0°-4° C. The supernatant, containing solubilised receptor tyrosine kinase, was stored in liquid nitrogen.
There was thus obtained the test enzyme solution.
Equal volumes of this solution and a solution of epidermal growth factor (EGF; 20 μg/ml) were mixed.
[γ-^32 P]ATP (3000 Ci/mM, 250 μCi) was diluted to a volume of 2 ml by the addition of a solution of ATP (100 μM) in distilled water. An equal volume of a 4 mg/ml solution of the peptide […]in a mixture of 40 mM Hepes buffer at pH 7.4, 0.1% Triton X-100 and 10% glycerol was added.
The test compound/EGF mixture solution (5 μl) was added to the test enzyme solution (10 μl) and the mixture was incubated at 0°-4° C. for 30 minutes. The ATP/peptide mixture (10 μl) was added and the mixture was incubated at 25° C. for 10 minutes. The phosphorylation reaction was terminated by the addition of 5% trichloroacetic acid (40 μl ) and bovine serum albumin (BSA; 1 mg/ml, 5 μl). The mixture was allowed to stand at 4° C. for 30 minutes and then centrifuged. An aliquot (40 μl) of the supernatant was placed onto a strip of Whatman p 81 phosphocellulose paper. The strip was washed in 75 mM phosphoric acid (4×10 ml) and blotted dry. Radioactivity present in the filter paper was measured using a liquid scintillation counter (Sequence A). The reaction sequence was repeated in the absence of the EGF (Sequence B) and again in the absence of the test compound (Sequence C).

Assay [4] deals with human naso-pharyngeal cancer cell line KB. In words: cells. The assay is classed as cell-based. To be noted: 72 h, values stated as approximate, EGF 10 ng/ml, 3 days, read-out: Test (b) IC50. Here is the method:
(b) An in vitro assay which determines the ability of a test compound to inhibit the EGF-stimulated growth of the human naso-pharyngeal cancer cell line KB.
Cell growth was determined after incubation for 3 days by the extent of metabolism of MTT tetrazolium dye to furnish a bluish colour. Cell growth was then determined in the presence of EGF (10 ng/ml) or in the presence of EGF (10 ng/ml) and a test compound at a range of concentrations. An IC50 value could then be calculated.

Assay [5] concerns another carcinoma which does not express EGF receptor tyrosine kinase. To be noted: Toi et al., 1990; cited from earlier work.
[6] abbreviates: values stated as approximate, EGF receptor tyrosine kinase from A-431 cells.

Molecules are shown by their SMILES. Read-outs that look alike come from different tables or passages of the source.

T1 sequence (P00533 25-1210): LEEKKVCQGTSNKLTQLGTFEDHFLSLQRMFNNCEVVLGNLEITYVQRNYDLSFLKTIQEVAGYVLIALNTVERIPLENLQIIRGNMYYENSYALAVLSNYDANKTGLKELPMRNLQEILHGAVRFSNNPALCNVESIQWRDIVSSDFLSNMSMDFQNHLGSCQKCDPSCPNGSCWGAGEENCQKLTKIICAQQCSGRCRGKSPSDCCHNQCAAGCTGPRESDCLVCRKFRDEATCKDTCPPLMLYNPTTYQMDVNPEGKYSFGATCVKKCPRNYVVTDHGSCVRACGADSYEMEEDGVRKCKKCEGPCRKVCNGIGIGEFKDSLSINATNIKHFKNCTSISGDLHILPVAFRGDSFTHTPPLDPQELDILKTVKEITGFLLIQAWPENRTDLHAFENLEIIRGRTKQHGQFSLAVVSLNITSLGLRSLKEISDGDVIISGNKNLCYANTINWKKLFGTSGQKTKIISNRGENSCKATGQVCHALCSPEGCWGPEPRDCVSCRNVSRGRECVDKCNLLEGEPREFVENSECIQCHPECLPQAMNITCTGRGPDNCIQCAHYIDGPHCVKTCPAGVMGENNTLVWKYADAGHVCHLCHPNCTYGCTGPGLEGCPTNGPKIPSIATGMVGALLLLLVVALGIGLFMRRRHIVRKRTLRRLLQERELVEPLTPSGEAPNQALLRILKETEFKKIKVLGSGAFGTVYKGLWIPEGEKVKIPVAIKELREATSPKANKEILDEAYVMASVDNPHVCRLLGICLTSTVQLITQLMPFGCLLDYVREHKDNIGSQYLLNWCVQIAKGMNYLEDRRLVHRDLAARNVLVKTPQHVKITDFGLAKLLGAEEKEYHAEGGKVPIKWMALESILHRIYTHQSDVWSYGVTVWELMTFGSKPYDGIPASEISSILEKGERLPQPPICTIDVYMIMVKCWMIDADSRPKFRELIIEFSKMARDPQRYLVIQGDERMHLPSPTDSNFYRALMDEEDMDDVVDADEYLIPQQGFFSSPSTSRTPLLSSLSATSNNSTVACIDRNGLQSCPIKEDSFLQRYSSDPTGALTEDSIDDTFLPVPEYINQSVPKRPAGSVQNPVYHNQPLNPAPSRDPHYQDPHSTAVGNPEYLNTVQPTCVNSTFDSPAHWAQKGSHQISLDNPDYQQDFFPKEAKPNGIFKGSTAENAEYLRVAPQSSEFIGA

In the case of `COc1cc2ncnc(Nc3cccc(Br)c3)c2cc1OC` [4-(3'-bromoanilino)-6,7-dimethoxyquinazoline], the “inhibition of EGF receptor tyrosine kinase” value in assay [1] is given as “highly potent inhibitor of EGF receptor tyrosine kinase”.
For `COc1cc2ncnc(Nc3ccc(F)c(Cl)c3)c2cc1OCCCN1CCOCC1` [Example 1, 4-(3'-chloro-4'-fluoroanilino)-7-methoxy-6-(3-morpholinopropoxy)quinazoline], the ED50 (commonly the dose at which the effect has come halfway, by size or by number of responders) in assay [2] is about 12.5 mg/kg.
Regarding `COc1cc2ncnc(Nc3ccc(F)c(Cl)c3)c2cc1OCCN1CCOCC1` [Example 3, 4-(3'-chloro-4'-fluoroanilino)-7-methoxy-6-(2-morpholinoethoxy)quinazoline], the IC50 (in general, the midpoint of a concentration-inhibition curve) in assay [3] (setting [6]) came to 10 nM; in assay [4], 400 nM.
As for `COc1cc2ncnc(Nc3ccc(F)c(Cl)c3)c2cc1OCCN1CCN(C)CC1` [Example 4, 4-(3'-chloro-4'-fluoroanilino)-7-methoxy-6-[2-(4-methylpiperazin-1-yl)ethoxy]quinazoline], the 50% inhibitory concentration (IC50) in assay [3] amounted to 10 nM; in assay [4] it was 100 nM.
On to `COCCN(CCOC)CCOc1cc2c(Nc3ccc(F)c(Cl)c3)ncnc2cc1OC` [Example 5, 4-(3'-chloro-4'-fluoroanilino)-7-methoxy-6-{2-[di-(2-methoxyethyl)amino]ethoxy}quinazoline], for which the values for the IC50 in assay [3] (setting [6]) and in assay [4] were 60 nM and 200 nM, respectively.
In the case of `COc1cc2ncnc(Nc3ccc(F)c(Cl)c3)c2cc1OCCN(C)C` [Example 6, 4-(3'-chloro-4'-fluoroanilino)-6-(2-dimethylaminoethoxy)-7-methoxyquinazoline], the 50% inhibitory concentration (IC50) is 10 nM in assay [3] (setting [6]) and 100 nM in assay [4].
For the compound `CCN(CC)CCOc1cc2c(Nc3ccc(F)c(Cl)c3)ncnc2cc1OC` [Example 7, 4-(3'-chloro-4'-fluoroanilino)-6-(2-diethylaminoethoxy)-7-methoxyquinazoline], the figures for the concentration for half-maximal inhibition (IC50) in assay [3] (setting [6]) and in assay [4] were 90 nM and 300 nM, respectively.
Regarding `COc1cc2ncnc(Nc3ccc(F)cc3F)c2cc1OCCCN(C)C` [Example 8, 4-(2',4'-difluoroanilino)-6-(3-dimethylaminopropoxy)-7-methoxyquinazoline], the concentration for half-maximal inhibition (IC50) in assay [3] (setting [6]) is 480 nM; in assay [4], 900 nM.
On the same counts, the results for `COc1cc2ncnc(Nc3ccc(F)c(Cl)c3)c2cc1OCC(O)CN1CCOCC1` (stereo not shown) [Example 9, 4-(3'-chloro-4'-fluoroanilino)-6-(2-hydroxy-3-morpholinopropoxy)-7-methoxyquinazoline] are 10 nM and 100 nM.
On the same counts, the results for `COc1cc2ncnc(Nc3ccc(F)cc3F)c2cc1OCCCN1CCOCC1` [Example 14, 4-(2',4'-difluoroanilino)-7-methoxy-6-(3-morpholinopropoxy)quinazoline] are 670 nM and 300 nM.
Consider `COc1cc2ncnc(Nc3ccc(F)c(F)c3)c2cc1OCCCN(C)C` [Example 18, 4-(3',4'-difluoroanilino)-6-(3-dimethylaminopropoxy)-7-methoxyquinazoline], for which the IC50 was 270 nM in assay [3] (setting [6]) and 390 nM in assay [4].
Consider `COc1cc2ncnc(Nc3ccc(F)c(F)c3)c2cc1OCCCN1CCOCC1` [Example 19, 4-(3',4'-difluoroanilino)-7-methoxy-6-(3-morpholinopropoxy)quinazoline], for which the IC50 amounted to 520 nM in assay [3] (setting [6]) and 450 nM in assay [4].
In the same order, the values of `CCN(CC)CCCOc1cc2c(Nc3ccc(F)c(F)c3)ncnc2cc1OC` [Example 20, 6-(3-diethylaminopropoxy)-4-(3',4'-difluoroanilino)-7-methoxyquinazoline] are 670 nM and 550 nM.
In the case of `O=CN/C=C/c1cc(O)ccc1O` [erbstatin], the “growth of another carcinoma not expressing EGF receptor tyrosine kinase” value in assay [5] is on record as “without effect on the growth”.
